Assays:
[1] = target: T1, recombinantly expressed OR2AT4 (Homo sapiens, UniProt A6NND4); experiment: Calcium imaging of transiently OR2AT4-transfected Hana3A cells; type: cell-based; conditions: 1 mM odorant, 20 s stimulation, OR2AT4-transfected Hana3A cells
T1 construct: expressed in transfected cells; host or cells: Hana3A cells, transient transfection with pcDNA3-OR2AT4 by the calcium phosphate method
T1 sequence (A6NND4 1-320): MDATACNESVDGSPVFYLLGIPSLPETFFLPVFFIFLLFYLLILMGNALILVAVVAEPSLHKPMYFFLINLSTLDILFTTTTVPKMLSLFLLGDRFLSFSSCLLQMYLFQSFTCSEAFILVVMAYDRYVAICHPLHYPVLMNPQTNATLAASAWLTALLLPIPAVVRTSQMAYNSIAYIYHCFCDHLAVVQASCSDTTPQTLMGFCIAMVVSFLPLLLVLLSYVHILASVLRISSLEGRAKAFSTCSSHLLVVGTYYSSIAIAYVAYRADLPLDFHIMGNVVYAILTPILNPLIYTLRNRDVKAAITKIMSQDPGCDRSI
Method: Hana3A cells expressing stable endogenous olfactory transduction factors, which specifically target the incorporation of ORs into the cell membrane and thus improve activation capacity, were used as a heterologous expression system. Moreover, the 20 first N-terminal amino acids of rhodopsins (Rho-tag) were added before the N-terminus of the coding sequence of the OR, also in order to support heterologous expression.
A method established at the Department of Cell Physiology of Ruhr University Bochum for deorphanization studies is calcium imaging, in which activation of an OR by an odorant is visualized by a change in the intracellular calcium concentration of transfected cells using a fluorescent dye [cf. Wetzel et al. in: J. Neurosci. 19, pp. 7426-7433 (1999); Spehr et al. in: Science 299, pp. 2054-2058 (2003); Neuhaus et al. in: J. Biol. Chem. 284, pp. 16218-16225 (2009)]. In this method, the Hana3A cells are briefly (20 s) stimulated with an odorant and selected for odorant screenings of high concentrations (up to 1 mM) in order to confirm activation of ORs weakly expressed in Hana3A cells.
The activation of OR2AT4 by Sandalore® was first investigated by the calcium imaging method.
Odorants can not only activate a receptor, but can also act as antagonists to an OR.
(§1) Determination of receptive field of recombinantly expressed OR2AT4. […] As a control, untransfected Hana3A cells were simulated with Sandalore®. 100 μM of ATP was used at the end of each measurement as a positive control stimulus. […] The mean response rate including standard error of the cells is shown relative to the Ringer control. […] Isobornyl.: isobornyl cyclohexanol; S. öl: sandalwood oil. Kruskal-Wallis test with multiple comparison. *: p<0.05. […] Significance was determined between Hana3A cells transfected with OR2AT4-pcDNA3 and pcDNA3 without an insert. The dots show mean normalized luciferase-activity including standard error. Mann-Whitney U test; n=3 experiments. *: p<0.05; **: p<0.01; ***: p<0.001.
Antagonists of recombinantly expressed OR2AT4. […] 100 μM of ATP was used at the end of each measurement as a positive control stimulus. […] The mean response rate including standard error of the cells is shown relative to the Ringer control. Number of measurements: Ringer (23), Sandalore® (22), Sandalore®+dimetol (11), dimetol (11), Phenirat (14), Sandalore®+Phenirat (22), Oxyphenylon (12), and Sandalore®+Oxyphenylon (20). S: Sandalore®. Kruskal-Wallis test with multiple comparison. *: p<0.05.

[2] = target: T1, recombinantly expressed OR2AT4; experiment: CRE dual luciferase assay in OR2AT4-transfected Hana3A cells; type: cell-based; conditions: for activation of OR2AT4 in the luciferase assay: up to the highest useable concentrations 10-25 μM
Source text: In order to verify calcium imaging results and investigate dose-dependent activation of OR2AT4, a further method of deorphanization based on a dual luciferase system was used. In this method, in addition to the OR, two luciferases were introduced into the Hana3A cells. When the expressed OR is activated by an odorant and cAMP is formed in the further course of the signal cascade, this initiates expression of firefly luciferase via CRE (cAMP response elements). The second luciferase, Renilla luciferase, serves as a control for transfection and vitality of the cells. By calculating the two luciferase values, the activation capacity of an OR by an odorant can be determined. In the CRE luciferase assay, the odorant remains on the cells for hours in order to ensure that the luciferase is expressed. Because of the longer incubation time of the odorants and the possibility of activating more receptors in a 96-well format, this method is more sensitive than calcium imaging and is well-suited for establishing dose-response relationships.
For Brahmanol, however, a higher concentration (≥75 μM) was required than for Sandalore® (≥25 μM) in order to produce a significant effect at the receptor (FIG. 3c).
as §1

p38 MAPK = experiment: Western Blot, phosphorylation of p38 MAPK in HaCaT cells; type: cell-based, human; conditions: inhibitor 10 μM, Sandalore 500 μM
Method: (§2) In the following, an investigation was to be conducted to determine whether a MAPK signalling pathway is activated by Sandalore® stimulation in skin cells, and if so, which pathway is involved. For detection, HaCaT cells were stimulated for 0-30 min with 500 μM of Sandalore®, and the proteins were then isolated and used in Western Blot assays.
In order to reveal a possible interaction of the two MAPK signalling pathways, ERK1/2 phosphorylation in the presence of the p38 MAPK inhibitor SB203580 and p38 MAPK phosphorylation in the presence of the ERK1/2 MAPK inhibitor U0126 were investigated.
A) Western Blot for investigating the phosphorylation of the MAP kinases in HaCaT cells stimulated for 0, 5, 15 and 30 min with Sandalore®(500 μM). […] ERK1/2: 42/44 kDa; p38: 43 kDa; JNK/SAPK: 46/54 kDA; ▪-tubulin: 52 kDa. B) Quantitative evaluation of p38 and ERK1/2 phosphorylation of HaCaT cells stimulated for 30 min with Sandalore®(500 μM) or additionally with the p38 inhibitor 5B203580 (10 μM) or ERK1/2 inhibitor U0126 (10 μM). For evaluation, the ratio of the phosphorylated (p) and unphosphorylated proteins was established and compared to that of untreated cells. Mean values including standard error. Mann-Whitney U test. *: p<0.05; ***: p<0.001. In C), the inhibitors of the respective other MAP kinase were used, and phosphorylation was compared to the cells stimulated with Sandalore® (500 μM) alone. Mean values including standard error. Mann-Whitney U test. *: p<0.05. The Western Blot analyses were carried out with three different protein isolations.

HaCaT cells = experiment: In vitro wound scratch assay, HaCaT cells; type: cell-based, human; conditions: HaCaT; for Sandalore-increased wound healing on coincubation: 48 hours, Sandalore 500 μM + antagonist 500 μM or inhibitor 10 μM; for effect of the substance alone on wound healing: antagonist 500 μM or inhibitor 10 μM alone
Source text: The MAP kinases p38 and ERK1/2 are often associated with increased proliferation and migration in epidermal wound healing. For this reason, in a further physiological experiment, the effect of Sandalore® on “wound healing” of a confluent cell layer of HaCaT cells or primary keratinocytes was investigated. For this purpose, the wound scratch assay was used, which is an established in vitro method for initial investigations of wound healing processes in keratinocytes.
In order to investigate the role of the OR2AT4 receptor in this effect, a test was conducted to determine whether the two antagonists Oxyphenylon and Phenirat could again reduce the “wound healing” increased by Sandalore®. For this purpose, Sandalore® was mixed with one of the antagonists each in the same ratio, and the effect on “wound healing” of the HaCaT cells was again observed for 48 hours. […] The two antagonists alone had no effect on the “wound healing” (FIG. 18d). The role of the MAP kinases p38 and ERK1/2 was investigated by means of specific inhibitors of the kinases. For p38 MAPK, the […] SB203580 was used, and for ERK1/2 MAPK, the […] U0126 was used. […] The two inhibitors alone had no effect on the wound healing (FIG. 18d).
Effect of Sandalore® stimulation on human keratinocytes in an in vitro “wound healing” assay. Investigation of the “wound healing rate” of A) primary keratinocytes and B) HaCaT cells by means of a wound scratch assay in the presence of Sandalore® (500 μM) or 0.1% DMSO as a control. Left: Transmitted light images of the “wound” observed at various times. The growth margin of the cells was surrounded in black. Scale: 200 μm. Right: Quantitative evaluation of the wound scratch assay. The areas of the wounds were measured and compared to the initial wound (0 h). Mean values including standard error. Mann-Whitney U test; n=4 experiments. *: p<0.05; ***: p<0.001. C) Wound scratch assay in the presence of Sandalore® (500 μM) and one of the antagonists Oxyphenylon (500 μM) or Phenirat (500 μM) respectively, the p38 MAPK inhibitor 5B203580 (10 μM), or the ERK1/2 MAPK inhibitor U0126 (10 μM). The measured wound areas of the treated cells (after 48-hour stimulation) were compared to the control (0.1% DMSO). Mean values including standard error. Kruskal-Wallis test with multiple comparison; n=3 experiments. *: p<0.05. D) Controls for the wound scratch assay with Oxyphenylon (500 μM), Phenirat (500 μM), 5B203580 (10 μM), or U0126 (10 μM) carried out under C). The measured wound areas of the treated cells were compared to the control (0.1% DMSO). Mean value included.

ERK1/2 MAPK = experiment: Western Blot, phosphorylation of ERK1/2 MAPK in HaCaT cells; type: cell-based, human; conditions: inhibitor 10 μM, Sandalore 500 μM
Method: as §2
In order to reveal a possible interaction of the two MAPK signalling pathways, ERK1/2 phosphorylation in the presence of the p38 MAPK inhibitor SB203580 and p38 MAPK phosphorylation in the presence of the ERK1/2 MAPK inhibitor U0126 were investigated. Phosphorylation was increased for both kinases in the presence of the respective inhibitors compared to the cells stimulated with Sandalore® only. This effect was significant for p38 MAPK (FIG. 17c).
Effect of Sandalore® stimulation on phosphorylation of MAP kinases in skin cells. A) Western Blot for investigating the phosphorylation of the MAP kinases in HaCaT cells stimulated for 0, 5, 15 and 30 min with Sandalore®(500 μM). In order to confirm uniform protein volume, ▪-tubulin was used as a control. ERK1/2: 42/44 kDa; p38: 43 kDa; JNK/SAPK: 46/54 kDA; ▪-tubulin: 52 kDa. B) Quantitative evaluation of p38 and ERK1/2 phosphorylation of HaCaT cells stimulated for 30 min with Sandalore®(500 μM) or additionally with the p38 inhibitor 5B203580 (10 μM) or ERK1/2 inhibitor U0126 (10 μM). For evaluation, the ratio of the phosphorylated (p) and unphosphorylated proteins was established and compared to that of untreated cells. Mean values including standard error. Mann-Whitney U test. *: p<0.05; ***: p<0.001. In C), the inhibitors of the respective other MAP kinase were used, and phosphorylation was compared to the cells stimulated with Sandalore® (500 μM) alone. Mean values including standard error. Mann-Whitney U test. *: p<0.05. The Western Blot analyses were carried out with three different protein isolations.

Compound	response rate of the Hana3A cells relative to the Ringer control [1]	activation of OR2AT4 in the luciferase assay [2]	Sandalore-increased wound healing on coincubation (HaCaT cells)	effect of the substance alone on wound healing (HaCaT cells)	further results
CC1=CCC(C=CC(C)(C)C(C)O)C1(C)C (centres unmarked) [Polysantol]	only Brahmanol showed an increased response rate	no increased activation of OR2AT4	–	–	–
C[S+]([O-])c1ccc(-c2nc(-c3ccncc3)c(-c3ccc(F)cc3)[nH]2)cc1 (centres unmarked) [SB203580]	–	–	again reduced to the normal level	no effect	Sandalore-induced p38 MAPK phosphorylation with p38 inhibitor (p38 MAPK; 30 min): significantly reduced; ERK1/2 phosphorylation in the presence of the p38 MAPK inhibitor compared to Sandalore only (ERK1/2 MAPK): increased
CC/C(=C\CC1CC=C(C)C1(C)C)CO (centres unmarked) [Sandranol]	only Brahmanol showed an increased response rate	–	–	–	reaction in the CRE luciferase assay ([2]; at the investigated concentration (≥50 μM)): no reaction
N#CC(=C(/N)Sc1ccccc1N)/C(C#N)=C(\N)Sc1ccccc1N [U0126]	–	–	again reduced to the normal level	no effect	increase of p38 MAPK phosphorylation in the presence of the ERK1/2 MAPK inhibitor compared to Sandalore only (p38 MAPK): significant; Sandalore-induced ERK1/2 MAPK phosphorylation with ERK1/2 inhibitor (ERK1/2 MAPK; 30 min): significantly reduced
isobornyl cyclohexanol	only Brahmanol showed an increased response rate	no increased activation of OR2AT4	–	–	–

— patent publication US10835500B2, “Medicament for accelerated wound healing” (Symrise AG, priority 2014, dated 2020)
